{
  "source": "patent US20040063806A1",
  "about": "“Antimicrobial polyalphaolefin composition” (priority 2000, published 2004)",
  "origin": "cited, not measured here",
  "key": {"Trichophyton rubrum": {"test_system": "Trichophyton rubrum", "details": "origin A, medium SMA"}, "Bacillus cereus": {"test_system": "Bacillus cereus", "details": "origin A, medium NA"}, "Epidermophyton floccosum": {"test_system": "Epidermophyton floccosum", "details": "Epidermophyton floccosum ATCC 10227, medium SMA"}, "[1]": {"test_system": "Streptococcus saprophyticus", "details": "Streptococcus saprophyticus ATCC 15305, medium M-H"}, "Bacillus megatherium": {"test_system": "Bacillus megatherium", "details": "origin A, medium NA"}, "[2]": {"test_system": "Staphylococcus saprophyticus", "details": "Staphylococcus saprophyticus NCTC 7292, medium NA"}, "Klebsiella oxytoca": {"test_system": "Klebsiella oxytoca", "details": "Klebsiella oxytoca ATCC 43165, medium M-H"}, "Staphylococcus hyicus": {"test_system": "Staphylococcus hyicus", "details": "Staphylococcus hyicus NCTC 7944, medium BHI-A"}, "Acinetobacter lwoffii": {"test_system": "Acinetobacter lwoffii", "details": "Acinetobacter lwoffii ATCC 15309, medium M-H"}, "Neisseria catarrhalis": {"test_system": "Neisseria catarrhalis", "details": "Neisseria catarrhalis NCTC 3622, medium BA"}, "Enterobacter sakazakii": {"test_system": "Enterobacter sakazakii", "details": "Enterobacter sakazakii NCTC 8155, medium NA"}, "[3]": {"test_system": "Bacillus cereus var. mycoides", "details": "origin A, medium NA"}},
  "note": "Like-named read-outs stand apart in the source and are kept apart here.",
  "data": [
    {"smiles": "Oc1cc(Cl)ccc1Oc1ccc(Cl)cc1Cl", "note": "[IRGAGUARD B 1000, 2,4,4′-trichloro-2′-hydroxydiphenyl ether]", "values": [
      {"measurement": "Microbiostatic effect", "setting": "Trichophyton rubrum", "result": 10, "unit": "ppm"},
      {"measurement": "Microbiostatic effect", "setting": "Bacillus cereus", "result": 3.0, "unit": "ppm"},
      {"measurement": "Microbiostatic effect", "setting": "Epidermophyton floccosum", "result": "1-10 ppm"},
      {"measurement": "Microbiostatic effect", "setting": "Pseudomonas aeruginosa; Pseudomonad aeruginosa ATCC 12055, medium NA", "result": ">1000", "unit": "ppm"},
      {"measurement": "Microbiostatic effect", "setting": "Pseudomonas aeruginosa; Pseudomonas aeruginosa NCTC 8060, medium NA", "result": ">1000", "unit": "ppm"},
      {"measurement": "Microbiostatic effect", "setting": "Staphylococcus aureus; Staphylococcus aureus ATCC 6538, medium NA", "result": 0.01, "unit": "ppm"},
      {"measurement": "Microbiostatic effect", "setting": "Staphylococcus aureus; Staphylococcus aureus ATCC 9144, medium M-H", "result": 0.05, "unit": "ppm"},
      {"measurement": "Microbiostatic effect", "setting": "Staphylococcus aureus; Staphylococcus aureus ATCC 13709, medium NA", "result": 0.01, "unit": "ppm"},
      {"measurement": "Microbiostatic effect", "setting": "Staphylococcus aureus; Staphylococcus aureus ATCC 29213, medium M-H", "result": "<0.125", "unit": "ppm"},
      {"measurement": "Microbiostatic effect", "setting": "Staphylococcus aureus; Staphylococcus aureus NCTC 6571, medium NA", "result": 0.03, "unit": "ppm"},
      {"measurement": "Microbiostatic effect", "setting": "Staphylococcus aureus; Staphylococcus aureus NCTC 6966, medium NA", "result": 0.1, "unit": "ppm"},
      {"measurement": "Microbiostatic effect", "setting": "Staphylococcus aureus; Staphylococcus aureus NCTC 10443, medium M-H, Methicillin resistant", "result": 0.01, "unit": "ppm"},
      {"measurement": "Microbiostatic effect", "setting": "Staphylococcus aureus; Staphylococcus aureus NCTC 10703, medium M-H, Methicillin resistant", "result": 0.01, "unit": "ppm"},
      {"measurement": "Microbiostatic effect", "setting": "Staphylococcus aureus; Staphylococcus aureus NCTC 11150, medium M-H, Methicillin resistant", "result": 0.02, "unit": "ppm"},
      {"measurement": "Microbiostatic effect", "setting": "Staphylococcus aureus; Staphylococcus aureus NCTC 11940, medium M-H, Methicillin resistant", "result": 0.01, "unit": "ppm"},
      {"measurement": "Microbiostatic effect", "setting": "Staphylococcus aureus; Staphylococcus aureus NCTC 12232, medium M-H, Methicillin resistant", "result": 0.01, "unit": "ppm"},
      {"measurement": "Microbiostatic effect", "setting": "Staphylococcus aureus; Staphylococcus aureus NCTC 12493, medium M-H, Methicillin resistant", "result": 0.01, "unit": "ppm"},
      {"measurement": "Microbiostatic effect", "setting": "Staphylococcus aureus; Staphylococcus aureus NCTC 12497, medium M-H, Methicillin resistant", "result": 0.01, "unit": "ppm"},
      {"measurement": "Microbiostatic effect", "setting": "[1]", "result": 0.125, "unit": "ppm"},
      {"measurement": "Microbiostatic effect", "setting": "Bacillus megatherium", "result": 3.0, "unit": "ppm"},
      {"measurement": "Microbiostatic effect", "setting": "[2]", "result": 0.1, "unit": "ppm"},
      {"measurement": "Microbiostatic effect", "setting": "Klebsiella oxytoca", "result": 1.0, "unit": "ppm"},
      {"measurement": "Microbiostatic effect", "setting": "Staphylococcus hyicus", "result": 0.03, "unit": "ppm"},
      {"measurement": "Microbiostatic effect", "setting": "Acinetobacter lwoffii", "result": 0.125, "unit": "ppm"},
      {"measurement": "Microbiostatic effect", "setting": "Candida albicans; Candida albicans ATCC 10259, medium M", "result": 3, "unit": "ppm"},
      {"measurement": "Microbiostatic effect", "setting": "Candida albicans; Candida albicans, origin A, medium SMA", "result": 10, "unit": "ppm"},
      {"measurement": "Microbiostatic effect", "setting": "Neisseria catarrhalis", "result": 33.0, "unit": "ppm"},
      {"measurement": "Microbiostatic effect", "setting": "Enterococcus faecalis; Enterococcus faecalis ATCC 6055, medium M-H", "result": 5.0, "unit": "ppm"},
      {"measurement": "Microbiostatic effect", "setting": "Enterococcus faecalis; Enterococcus faecalis ATCC 29212, medium M-H", "result": 4.0, "unit": "ppm"},
      {"measurement": "Microbiostatic effect", "setting": "Enterococcus faecalis; Enterococcus faecalis NCTC 12201, medium M-H, Varicomycin resistant", "result": 5.0, "unit": "ppm"},
      {"measurement": "Microbiostatic effect", "setting": "Enterococcus faecalis; Enterococcus faecalis NCTC 12203, medium M-H, Varicomycin resistant", "result": 5.0, "unit": "ppm"},
      {"measurement": "Microbiostatic effect", "setting": "Enterobacter sakazakii", "result": 0.3, "unit": "ppm"},
      {"measurement": "Microbiostatic effect", "setting": "[3]", "result": 3.0, "unit": "ppm"}
    ]}
  ]
}
